Measured values: patent US6841366B1, “Biotin biosynthesis in bacillus subtilis” (DSM IP Assets B.V., priority 1993, dated 2005)

Experiments:
PY79 bioI::cat = test: Growth of bioI::cat mutants on biotin-free medium with supplements; assay type: cell-based, B. subtilis
[1] = tested on: E. coli strain RY604(ΔbioH) containing pBIO403; test: Growth of E. coli carrying only B. subtilis bioW, with pimelic acid and azelaic acid; assay type: cell-based
Procedure: A plasmid (pBIO403) containing only the B. subtilis bioW gene and its promoter cloned into pCL1921 (Lerner and Inouye, 1990, supra), complemented both E. coli ΔbioH and bioC mutants, if and only if pimelic acid was added to the medium at about 30 mg/l. This experiment confirmed that bioW encodes a pimelyl-CoA synthetase that can bypass bioH and bioC in E. coli.
(§1) Therefore, Applicants concluded that azelaic acid acts at the level of pimelyl CoA synthetase (bioW), either as a competitive inhibitor of pimelic acid, or by incorporation into a biotin homolog or other toxic intermediate.

B. subtilis = test: Stimulation of biotin vitamer production by pimelic acid; assay type: cell-based; conditions: 1 g/l
Procedure: In all fermentations, 1 g/l pimelic acid was added to both the initial batch and feed solutions. BI282, BI278 and BI276 were the most optimized for biotin and biotin vitamer production.
Addition of pimelate to the fermentation medium results in an increased level of a biotin vitamer which is probably KAPA (FIG. 15, lane D). This was shown by an increase in the KAPA/BSO spot compared to similar fermentations without pimelate (FIG. 15, lane B).
(§2) Azelaic acid, a straight chain C9 dicarboxylic acid, is a homolog of pimelic acid and is thought to be an intermediate in the conversion of oleic acid to pimelic acid (see Ohsugi and Inoue (1981) Agric. Biol. Chem. 45: 2355-2356, hereby incorporated by reference).

[2] = tested on: B. subtilis PY79 and azelaic acid resistant mutants; test: Growth inhibition by azelaic acid, minimal agar; assay type: cell-based
Excerpt: as §2
Seven spontaneous mutants that outgrew the background of PY79 on 2 g/l Azelaic acid were isolated. The resistance to azelaic acid appeared to be a stable trait in all but one case (see below). The seven mutants were provisionally named PA1-PA7 (PY79 Azelaic acid resistant). PA1 through PA7 were grown in test tubes in VY medium, and biotin production was assayed using E. coli indicator strains (Table 15). The mutants fell into two classes, those that yielded more biotin than PY79 (PA5, PA6) and those that were similar to PY79 (PA1, 2, 3, and 7). PA4 appeared to be either unstable or not a true mutant and was dropped from further study. Applicants also noticed that the mutants fell into two classes with respect to colony size on minimal agar with 2 g/l azelaic acid, and that these two classes corresponded to the two classes of biotin producers (Table 11). The mutants with the most biotin in the supernatant (PA5 and PA6) gave small colonies, while the biotin non-secreters, PA1, 2, 3, and 7, gave large colonies. PA1 and PA3 secreted a compound that cross-fed PY79 (i.e., reversed the azelaic acid inhibition of PY79) on minimal plates containing 2 g/l azelaic acid.

E. coli strain MM294 = test: Azelaic acid sensitivity of wild-type E. coli; assay type: cell-based
Excerpt: as §1

Row | SMILES | Restoration of growth of PY79 bioI::cat9 bradytroph (PY79 bioI::cat; 30 mg/l) | Growth of PY79 bioI::cat strains (either cat orientation) on biotin-free medium (PY79 bioI::cat; pimelic acid 33 μg/ml) | Satisfaction of the biotin requirement of RY604(ΔbioH)/pBIO403 ([1]; 30 mg/l) | Effect on biotin vitamer production in B. subtilis (B. subtilis) | Growth inhibition of wild-type B. subtilis ([2]; azelaic acid at concentrations higher than 30 mg/l) | Growth inhibition of PY79 ([2]; minimal agar, azelaic acid 2 g/l (about 10^−2 M), did not kill or completely prevent growth) | Colony size on 2 g/l azelaic acid ([2]; strain PA1, minimal agar) | Colony size on 2 g/l azelaic acid ([2]; strain PA2, minimal agar) | Colony size on 2 g/l azelaic acid ([2]; strain PA3, minimal agar) | Colony size on 2 g/l azelaic acid ([2]; strain PA4, minimal agar) | Colony size on 2 g/l azelaic acid ([2]; strain PA5, minimal agar) | Colony size on 2 g/l azelaic acid ([2]; strain PA6, minimal agar) | Colony size on 2 g/l azelaic acid ([2]; strain PA7, minimal agar) | Colony size on 2 g/l azelaic acid ([2]; strain PY79, minimal agar) | Growth inhibition of PY79 bioI::cat9 (PY79 bioI::cat; 30 mg/l) | Substitution for pimelic acid in supporting growth of PY79 bioI::cat9 (PY79 bioI::cat; 30 mg/l) | Sensitivity of wild-type E. coli MM294 to azelaic acid (E. coli strain MM294) | Sensitivity of RY604/pBIO403 to azelaic acid ([1]; grown in excess pimelic acid (80 mg/l))
1 | O=C(O)CCCCCC(=O)O [pimelic acid] | restore wild-type growth | grew to wild-type levels | can satisfy the biotin requirement | stimulate biotin vitamer production | – | – | – | – | – | – | – | – | – | – | – | – | – | –
2 | O=C(O)CCCCCCCC(=O)O [azelaic acid, Azelaic acid] | – | – | – | – | inhibits the growth | severely inhibited growth | large | large | large | tiny | small | small | large | tiny | severely inhibited the growth | does not substitute for pimelic acid | relatively resistant | sensitive to inhibition
